{"source": "patent US9861703B2", "about": "(Jinan Platinum Pharmatech Co. Ltd., priority 2013, dated 2018)", "key": {"[1]": {"tested_on": "human leukemia cell line K562", "test": "MTT proliferation inhibition, K562", "format": "cell-based", "description": "(§1) Human leukemia cell line K562, clear-cell ovarian carcinoma cell line ES-2, human prostate cancer cell line PC-3, human breast cancer cell line MCF-7, cell line Hela, human liver cancer cell line H7402 and human ovarian cancer cell line 3-AO were transferred into a culture flask and were cultured in a medium at 37° C. in a 5% CO2 and saturation humidity. One bottle of cells in logarithmic growth phase was picked out and was blew and beaten to be uniform with a pipette, then took some cell suspension solution to prepare blood counting plate smear to count cells under inverted microscope, and then adjusted the cell number to be 1×10^5/mL by adding some culture medium. Cells were seeded on a 96-well plate on which also drug tests performed. Blank control group, negative control group, positive control group and drug test group were established on the plate while the surrounding wells of the plate were not used (but filled with sterile PBS), wherein the blank control groups were prepared by addition of culture medium 150 μL per well, the negative control groups were prepared by addition of cell suspension solution 100 μL per well and culture medium 50 μL per well, the positive control groups were prepared by addition of cell suspension solution 100 μL per well and positive control drug solution 50 μL per well, the drug test groups were prepared by addition of cell suspension solution 100 μL per well and test compound solution 50 μL per well, and there were 5 different concentrations of drug in the positive control group and the drug test group respectively: 0.01, 0.1, 1, 10, 100 μmol·L^−1, each concentration was established with 3 parallel wells. After the drug was added, the 96-well plate was incubated for 48 h at 37° C. in a CO2 incubator of 5% CO2 and saturation humidity. Upon completion of the incubation, 20 μL MTT solution (concentration was 5 mg/mL) was added to each well and incubated for an additional 4 h, and after the 96-well plate was centrifuged at 2000 rpm for 30 min, medium of each well was suck out carefully and removed and 100 μL DMSO was added instead, followed by vibrating on a tablet shaker for 15 min to re-dissolve formazan crystals completely. OD value of each well was measured at 570 nm wavelength using an enzyme-linked immunosorbent assay reader to calculate cellular proliferation inhibitory ratio of each drug in different concentrations. And half-inhibitory concentration (IC50) was calculated using statistical software SPSS 16.0, wherein the cellular proliferation inhibitory ratio can be calculated as following equation: […]"}, "H22 tumor cells [2]": {"tested_on": "H22 tumor cells", "test": "Activities of compounds in H22 tumor cells bearing Kunming mice models (Example 34)", "conditions": "for Tumor growth inhibition (%) / Tumor weight: after two cycles", "quoted_text": "(§2) The ascites was extracted from H22 tumour bearing mice with well growth, followed by adding sterile PBS to dilute the ascites to a concentration of 8.5×10^7 cells/mL. 100 uL of the cells solution was suck up by a 1 mL sterile injector to inoculate into right oxter of mice. After 3 days, the mice were weighted and randomized to several groups (almost 8 mice per group, and a bit more in control group). These mice were administrated a predetermined dosage by intravenous or oral gavage with two days off when having administrated for 5 days until two cycles one of which had 7 days. The body weight of mouse was recorded at the beginning and ending of every cycle,\n(§3) After being administrated for two cycles, the mice were weighted and recorded, then sacrificed by cervical dislocation to get lung, liver and spleen weighted respectively.\n(§4) Overall difference was calculated by the function of one-way analysis of variance (One-Way ANOVA) in Origin 7.5 software; and t-test was used for pair-comparison between drug administrated group and blank group, and the inhibitory ratio of drug in each group was calculated based on the following equation: inhibitory ratio (100%)=(mean tumor weight of control group−mean tumor weight of drug administrated group)/mean tumor weight of control group×100."}, "liver cancer H22 [3]": {"tested_on": "liver cancer H22", "test": "Inhibition assay of intravenous administration against liver cancer H22 (Example 33)", "description": "Extracted the ascites from H22 ascites tumour bearing mice, washed the ascites with sterile PBS for three times and then resuspended the cells with sterile PBS (cells counts: 3.75×10^7 cells/mL), inoculated it into right oxter of Kunming mice 100 uL per mouse.\nThe H22 tumor-bearing mice were randomized to 4 groups (7 mice per group) after being weighted. […] The size of tumor was measured by using a vernier calliper and weight of mouse by using an electronic balance at the beginning and ending of every cycle, then calculated their mean value. The mice were sacrificed after 13 days and the tumors were taken out and weighted. Tumor volume and inhibitory ratio were calculated as the following equation (L and W referred to length and width of tumor respectively): […]"}, "cell line Hela": {"tested_on": "cell line Hela", "test": "MTT proliferation inhibition, Hela", "format": "cell-based", "conditions": "48 h", "description": "as §1"}, "[4]": {"tested_on": "human breast cancer cell line MCF-7", "test": "MTT proliferation inhibition, MCF-7", "format": "cell-based", "description": "as §1"}, "[5]": {"tested_on": "human ovarian cancer cell line 3-AO", "test": "MTT proliferation inhibition, 3-AO", "format": "cell-based", "conditions": "48 h", "description": "as §1"}, "[6]": {"tested_on": "human liver cancer cell line H7402", "test": "MTT proliferation inhibition, H7402", "format": "cell-based", "description": "as §1"}, "[7]": {"tested_on": "human prostate cancer cell line PC-3", "test": "MTT proliferation inhibition, PC-3", "format": "cell-based", "conditions": "48 h", "description": "as §1"}, "H22 tumor cells [8]": {"tested_on": "H22 tumor cells", "conditions": "Kunming, mouse, in vivo, 14 days", "quoted_text": "as §2, §3, §4"}, "liver cancer H22 [9]": {"tested_on": "liver cancer H22", "test": "Inhibition assay of oral administration against liver cancer H22 (Example 33)", "format": "in vivo, Kunming mice", "conditions": "oral gavage, sacrificed after 13 days; for Tumor weight: two cycles (5 days on, 2 off); for inhibitory ratio (%): two cycles", "description": "(1) the negative control: PBS; (2) Xeloda group: 100 mg/kg/d; (3) TFU group: 70 mg/kg/d; (4) BC-01 group: 100 mg/kg/d.\n[formula] [formula] [formula] 2.2: Inhibition Assay of Intravenous Administration Against Liver Cancer H22"}, "[10]": {"tested_on": "clear-cell ovarian carcinoma cell line ES-2", "test": "MTT proliferation inhibition, ES-2", "format": "cell-based", "conditions": "48 h", "description": "as §1"}, "[11]": {"tested_on": "7 cell lines (ES-2, K562, PC-3, MCF-7, Hela, H7402, 3-AO)", "test": "MTT proliferation inhibition, all 7 tumor cell lines (summary in words)", "format": "cell-based", "description": "as §1"}, "Aminopeptidase N": {"target": "T1, Aminopeptidase N (Sus scrofa, UniProt P15145)", "T1 construct": "purchased Sigma", "T1 sequence (P15145 1-963)": "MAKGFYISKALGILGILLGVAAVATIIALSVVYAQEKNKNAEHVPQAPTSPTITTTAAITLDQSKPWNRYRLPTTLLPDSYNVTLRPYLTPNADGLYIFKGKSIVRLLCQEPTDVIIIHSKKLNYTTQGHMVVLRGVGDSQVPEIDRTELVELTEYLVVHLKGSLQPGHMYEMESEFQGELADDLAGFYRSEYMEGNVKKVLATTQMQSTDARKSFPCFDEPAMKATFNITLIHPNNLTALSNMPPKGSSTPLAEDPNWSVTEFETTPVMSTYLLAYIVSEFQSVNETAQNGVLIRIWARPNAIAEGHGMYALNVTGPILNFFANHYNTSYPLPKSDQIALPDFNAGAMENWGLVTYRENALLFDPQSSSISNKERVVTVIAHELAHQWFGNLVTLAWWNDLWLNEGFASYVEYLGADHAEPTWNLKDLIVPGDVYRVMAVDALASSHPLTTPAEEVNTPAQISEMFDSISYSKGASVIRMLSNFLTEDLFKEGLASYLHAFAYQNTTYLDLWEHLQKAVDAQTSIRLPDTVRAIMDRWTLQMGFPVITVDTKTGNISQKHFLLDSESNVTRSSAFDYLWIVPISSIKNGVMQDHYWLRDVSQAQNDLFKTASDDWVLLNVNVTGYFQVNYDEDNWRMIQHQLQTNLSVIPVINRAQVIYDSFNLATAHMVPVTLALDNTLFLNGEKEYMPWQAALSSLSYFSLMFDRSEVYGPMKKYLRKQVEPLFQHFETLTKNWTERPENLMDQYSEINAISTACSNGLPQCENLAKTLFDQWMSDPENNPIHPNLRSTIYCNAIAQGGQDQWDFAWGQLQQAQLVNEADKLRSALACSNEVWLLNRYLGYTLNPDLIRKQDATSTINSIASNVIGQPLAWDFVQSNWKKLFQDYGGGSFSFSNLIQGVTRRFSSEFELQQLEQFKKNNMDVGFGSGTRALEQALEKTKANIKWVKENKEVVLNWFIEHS", "test": "Inhibition activity against enzyme in vitro (aminopeptidase N, L-Leu-p-nitroanilide substrate)", "format": "biochemical", "description": "Aminopeptidase N and L-Leu-p-nitroanilide as substrate were purchased from Sigma cooperation.\nPreparation of Buffer Solution: 12.89 g Na2HPO4.12H2O and 2.18 g NaH2PO4.2H2O were dissolved in a 1000 mL volumetric flask, then the mixture was diluted to 1000 mL with fresh distilled water to obtain 50 mM Phosphate Buffer solution (PBS, pH 7.2), which was kept at room temperature to spare.\nAminopeptidase N was dissolved in the buffer solution to obtain 0.1 IU/mL solution.\nThe substrate was dissolved in DMSO to obtain a […] solution, which was kept in refrigerator to spare.\nThe aminopeptidase N solution 10 μL, the substrate solution 5 μL and compound with different concentration 40 μL were added into a 96-well cell plate, and then adjusted to 200 μL with phosphate buffer saline solution (pH 7.2). […] And the substrate solution 5 μL of blank group was adjusted to 200 μL with buffer solution. The mixture was incubated at 37° C. for 0.5 h, and absorbance was then determined at 405 nm wavelength Inhibitory ratio can be calculated as follows: […]\nAccording to concentration of compound and corresponding inhibitory ratio, the IC50 value was calculated by using a fitting curve of Origin 7.5 software."}, "[12]": {"conditions": "intravenous injection, 20 mg/kg/d (0.15 mmol/kg/d)"}, "[13]": {"conditions": "mouse, in vivo, iv, 20 mg/kg/day"}, "[14]": {"conditions": "tail intravenous injection, 20 mg/kg/d, sacrificed after 13 days"}, "[15]": {"conditions": "oral gavage, 108 mg/kg/d (0.3 mmol/kg/d)"}}, "note": "Like-named read-outs stand apart in the source and are kept apart here."}
{"compound": "Oc1ncc(F)c(O)n1", "note": "[Compound 5-FU, 2,4-dihydroxy-5-fluoropyrimidine, reference compound]", "values": [{"measurement": "EC50", "setting": "[1]; Homo sapiens, K562, 48 h", "result": 16, "unit": "µM"}, {"measurement": "Tumor growth inhibition (%)", "setting": "H22 tumor cells [2]; [12]", "result": 10.41, "unit": "%"}, {"measurement": "Tumor weight", "setting": "H22 tumor cells [2]; [12]", "result": "0.54 ± 0.06", "unit": "g"}, {"measurement": "Body weight(g) Beginning", "setting": "H22 tumor cells [2]; [12]", "result": "26.89 ± 2.06", "unit": "g"}, {"measurement": "Body weight(g) Ending", "setting": "H22 tumor cells [2]; [12]", "result": "25.51 ± 4.50", "unit": "g"}, {"measurement": "Number of mice alive", "setting": "liver cancer H22 [3]; Kunming, mouse, in vivo, iv, 20 mg/kg/day, 13 days", "result": 7}, {"measurement": "Body weight(g) Beginning", "setting": "liver cancer H22 [3]; [13]", "result": "31.37 ± 4.05", "unit": "g"}, {"measurement": "Body weight(g) Ending", "setting": "liver cancer H22 [3]; [13]", "result": "31.92 ± 4.98", "unit": "g"}, {"measurement": "Tumor weight", "setting": "liver cancer H22 [3]; [14]", "result": "0.84 ± 0.19", "unit": "g"}, {"measurement": "inhibitory ratio (%)", "setting": "liver cancer H22 [3]; [14]", "result": 38.83, "unit": "%"}, {"measurement": "EC50", "setting": "cell line Hela; Homo sapiens", "result": 133, "unit": "µM"}, {"measurement": "EC50", "setting": "[4]; Homo sapiens, MCF7, 48 h", "result": 76.9, "unit": "µM"}, {"measurement": "EC50", "setting": "[5]; Homo sapiens", "result": 60.8, "unit": "µM"}, {"measurement": "EC50", "setting": "[6]; Homo sapiens, H7402, 48 h", "result": 385, "unit": "µM"}, {"measurement": "EC50", "setting": "[7]; Homo sapiens", "result": 15.7, "unit": "µM"}, {"measurement": "Number of mice alive", "setting": "H22 tumor cells [8]; iv, 20 mg/kg/day", "result": 4}]}
{"compound": "O=c1[nH]c(=O)n(C2CCCO2)cc1F", "note": "(stereo not drawn) [TFU]", "values": [{"measurement": "Tumor weight", "setting": "liver cancer H22 [9]; 70 mg/kg/d", "result": 0.68, "unit": "g"}, {"measurement": "inhibitory ratio (%)", "setting": "liver cancer H22 [9]; 70 mg/kg/d", "result": 13.38, "unit": "%"}]}
{"compound": "CCCCCOC(=O)Nc1nc(=O)n([C@@H]2O[C@H](C)[C@@H](O)[C@H]2O)cc1F", "note": "[Xeloda, capecitabine, reference compound]", "values": [{"measurement": "Tumor growth inhibition (%)", "setting": "H22 tumor cells [2]; [15]", "result": 40.95, "unit": "%"}, {"measurement": "Tumor weight", "setting": "H22 tumor cells [2]; [15]", "result": "0.35 ± 0.09", "unit": "g"}, {"measurement": "Body weight(g) Beginning", "setting": "H22 tumor cells [2]; [15]", "result": "33.00 ± 1.81", "unit": "g"}, {"measurement": "Body weight(g) Ending", "setting": "H22 tumor cells [2]; [15]", "result": "31.42 ± 3.56", "unit": "g"}, {"measurement": "Tumor weight", "setting": "liver cancer H22 [9]; 100 mg/kg/d", "result": 0.6, "unit": "g"}, {"measurement": "inhibitory ratio (%)", "setting": "liver cancer H22 [9]; 100 mg/kg/d", "result": 24.53, "unit": "%"}, {"measurement": "Number of mice alive", "setting": "H22 tumor cells [8]; po, 108 mg/kg/day", "result": 7}]}
{"compound": "(S)-2-((2S,4S)-4-((2S,4S,5R,6S)-4-((tert-butoxycarbonyl)amino)-5-hydroxy-6-methyl-2(2H)-tetrahydropyranyloxy))-2,5,12-trihydroxy-7-methoxy-6,11-dioxo-2-(1,2,3,4,6,11-hexahydrotetracenyl)-2-ethoxy-2-((2S,3R)-3-amino-2-hydroxy-4-phenylbutyryl)-4-methylpentanoate hydrochloride [Compound 28]", "values": [{"measurement": "EC50", "setting": "[10]", "result": 3.34, "unit": "µM"}, {"measurement": "EC50", "setting": "[1]; 48 h", "result": 4.35, "unit": "µM"}, {"measurement": "EC50", "setting": "cell line Hela", "result": 1.99, "unit": "µM"}, {"measurement": "EC50", "setting": "[4]; 48 h", "result": 2.55, "unit": "µM"}, {"measurement": "EC50", "setting": "[5]", "result": 3.02, "unit": "µM"}, {"measurement": "anti-proliferation effect against all the tumor cells", "setting": "[11]", "result": "obvious anti-proliferation effect"}, {"measurement": "proliferation inhibition activity compared with 5-FU", "setting": "[11]", "result": "much more potent than 5-FU"}, {"measurement": "inhibitory activity against aminopeptidase N compared with positive control ubenimex", "setting": "Aminopeptidase N", "result": "comparable activity with ubenimex"}, {"measurement": "IC50", "setting": "Aminopeptidase N; 37° C., 0.5 h, absorbance 405 nm, PBS pH 7.2, read-out: IC50(μM) APN", "result": 5.56, "unit": "µM"}, {"measurement": "EC50", "setting": "[6]; 48 h", "result": 4.02, "unit": "µM"}, {"measurement": "EC50", "setting": "[7]", "result": 7.67, "unit": "µM"}]}
